Test results from PubChem BioAssay (NCI).
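These data come from cells grown in 96-well plates and exposed to compound for 48 hours at five concentrations. The concentration for 50% growth inhibition is given as GI50. At the TGI there is no net growth.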

Experiments:
Experiment in all cases: NCI-60 cell line screen, 48 h
DU-145 prostate = system: DU-145 prostate
A549 NSCLC = system: A549 NSCLC
KM12 colon = system: KM12 colon
SF-295 CNS = system: SF-295 CNS
MDA-MB-231 breast = system: MDA-MB-231 breast
SW-620 colon = system: SW-620 colon
IGROV1 ovarian = system: IGROV1 ovarian
MDA-MB-468 breast = system: MDA-MB-468 breast
HCT-116 colon = system: HCT-116 colon
NCI-H522 lung = system: NCI-H522 lung
HOP-62 NSCLC = system: HOP-62 NSCLC
CAKI-1 renal = system: CAKI-1 renal
HCC-2998 colon = system: HCC-2998 colon
LOX IMVI melanoma = system: LOX IMVI melanoma
SR leukemia = system: SR leukemia
OVCAR-8 ovarian = system: OVCAR-8 ovarian
M14 melanoma = system: M14 melanoma
SF-268 CNS = system: SF-268 CNS
NCI-H226 lung = system: NCI-H226 lung
TK-10 renal = system: TK-10 renal
PC-3 prostate = system: PC-3 prostate
UO-31 renal = system: UO-31 renal
HS 578T breast = system: HS 578T breast
MDA-MB-435 = system: MDA-MB-435
OVCAR-5 ovarian = system: OVCAR-5 ovarian
HT29 colon = system: HT29 colon
ACHN renal = system: ACHN renal
SF-539 CNS = system: SF-539 CNS
MALME-3M melanoma = system: MALME-3M melanoma
RPMI-8226 leukemia = system: RPMI-8226 leukemia
OVCAR-4 ovarian = system: OVCAR-4 ovarian
786-0 renal = system: 786-0 renal
SNB-75 CNS = system: SNB-75 CNS
SNB-19 CNS = system: SNB-19 CNS
SN12C renal = system: SN12C renal
HOP-92 NSCLC = system: HOP-92 NSCLC
SK-MEL-2 melanoma = system: SK-MEL-2 melanoma
SK-OV-3 ovarian = system: SK-OV-3 ovarian
SK-MEL-28 melanoma = system: SK-MEL-28 melanoma
K-562 leukemia = system: K-562 leukemia
BT-549 breast = system: BT-549 breast
UACC-257 melanoma = system: UACC-257 melanoma
UACC-62 melanoma = system: UACC-62 melanoma
HCT-15 colon = system: HCT-15 colon
RXF 393 renal = system: RXF 393 renal
NCI-H460 lung = system: NCI-H460 lung
OVCAR-3 ovarian = system: OVCAR-3 ovarian
MCF7 breast = system: MCF7 breast
MOLT-4 leukemia = system: MOLT-4 leukemia
U251 CNS = system: U251 CNS
CCRF-CEM leukemia = system: CCRF-CEM leukemia
A498 renal = system: A498 renal
SK-MEL-5 melanoma = system: SK-MEL-5 melanoma
COLO 205 colon = system: COLO 205 colon
T-47D breast = system: T-47D breast
NCI/ADR-RES ovarian = system: NCI/ADR-RES ovarian

SMILES: COc1cc(OC)c(S(=O)(=O)N(CCCl)CCCl)cc1C(=O)/C=C/c1cc(OC)c(OC)c(OC)c1
- GI50 (DU-145 prostate): 2.71 µM
- TGI (DU-145 prostate): 14.8 µM
- GI50 (A549 NSCLC): 3.11 µM
- TGI (A549 NSCLC): > 100 µM
- GI50 (KM12 colon): 1.93 µM
- TGI (KM12 colon): 4.26 µM
- GI50 (SF-295 CNS): 2.86 µM
- TGI (SF-295 CNS): 35.4 µM
- GI50 (MDA-MB-231 breast): 3.95 µM
- TGI (MDA-MB-231 breast): > 100 µM
- GI50 (SW-620 colon): 2.69 µM
- TGI (SW-620 colon): 25.1 µM
- GI50 (IGROV1 ovarian): 3.09 µM
- TGI (IGROV1 ovarian): 9.05 µM
- GI50 (MDA-MB-468 breast): 1.52 µM
- TGI (MDA-MB-468 breast): 3.66 µM
- GI50 (HCT-116 colon): 1.23 µM
- TGI (HCT-116 colon): 2.82 µM
- GI50 (NCI-H522 lung): 1.66 µM
- TGI (NCI-H522 lung): 3.78 µM
- GI50 (HOP-62 NSCLC): 3.77 µM
- TGI (HOP-62 NSCLC): 22.8 µM
- GI50 (CAKI-1 renal): 2.72 µM
- TGI (CAKI-1 renal): > 100 µM
- GI50 (HCC-2998 colon): 1.97 µM
- TGI (HCC-2998 colon): 3.54 µM
- GI50 (LOX IMVI melanoma): 1.44 µM
- TGI (LOX IMVI melanoma): 2.89 µM
- GI50 (SR leukemia): 0.993 µM
- TGI (SR leukemia): > 100 µM
- GI50 (OVCAR-8 ovarian): 4.06 µM
- TGI (OVCAR-8 ovarian): > 100 µM
- GI50 (M14 melanoma): 2.09 µM
- TGI (M14 melanoma): 5.45 µM
- GI50 (SF-268 CNS): 2.62 µM
- TGI (SF-268 CNS): 7.7 µM
- GI50 (NCI-H226 lung): 2.61 µM
- TGI (NCI-H226 lung): 8.95 µM
- GI50 (TK-10 renal): 6.09 µM
- TGI (TK-10 renal): 75 µM
- GI50 (PC-3 prostate): 3.85 µM
- TGI (PC-3 prostate): > 100 µM
- GI50 (UO-31 renal): 1.54 µM
- TGI (UO-31 renal): 2.92 µM
- GI50 (HS 578T breast): 8.55 µM
- TGI (HS 578T breast): > 100 µM
- GI50 (MDA-MB-435): 2.53 µM
- TGI (MDA-MB-435): 7.51 µM
- GI50 (OVCAR-5 ovarian): 2.51 µM
- TGI (OVCAR-5 ovarian): 6.8 µM
- GI50 (HT29 colon): 2.34 µM
- TGI (HT29 colon): 5.92 µM
- GI50 (ACHN renal): 2.08 µM
- TGI (ACHN renal): 6.16 µM
- GI50 (SF-539 CNS): 1.73 µM
- TGI (SF-539 CNS): 3.61 µM
- GI50 (MALME-3M melanoma): 2.48 µM
- TGI (MALME-3M melanoma): 7.18 µM
- GI50 (RPMI-8226 leukemia): 2.52 µM
- TGI (RPMI-8226 leukemia): > 100 µM
- GI50 (OVCAR-4 ovarian): 2.78 µM
- TGI (OVCAR-4 ovarian): > 100 µM
- GI50 (786-0 renal): 1.95 µM
- TGI (786-0 renal): 5.66 µM
- GI50 (SNB-75 CNS): 2.56 µM
- TGI (SNB-75 CNS): 8.53 µM
- GI50 (SNB-19 CNS): 2.37 µM
- TGI (SNB-19 CNS): 5.71 µM
- GI50 (SN12C renal): 2.26 µM
- TGI (SN12C renal): 13 µM
- GI50 (HOP-92 NSCLC): > 100 µM
- TGI (HOP-92 NSCLC): > 100 µM
- GI50 (SK-MEL-2 melanoma): 2.06 µM
- TGI (SK-MEL-2 melanoma): 4.65 µM
- GI50 (SK-OV-3 ovarian): 3.47 µM
- TGI (SK-OV-3 ovarian): 13 µM
- GI50 (SK-MEL-28 melanoma): 1.82 µM
- TGI (SK-MEL-28 melanoma): 3.54 µM
- GI50 (K-562 leukemia): 1.3 µM
- TGI (K-562 leukemia): > 100 µM
- GI50 (BT-549 breast): 1.37 µM
- TGI (BT-549 breast): 2.92 µM
- GI50 (UACC-257 melanoma): 1.66 µM
- TGI (UACC-257 melanoma): 3.89 µM
- GI50 (UACC-62 melanoma): 2.1 µM
- TGI (UACC-62 melanoma): 4.94 µM
- GI50 (HCT-15 colon): 1.12 µM
- TGI (HCT-15 colon): 3.98 µM
- GI50 (RXF 393 renal): 1.24 µM
- TGI (RXF 393 renal): 2.83 µM
- GI50 (NCI-H460 lung): 1.95 µM
- TGI (NCI-H460 lung): 5.08 µM
- GI50 (OVCAR-3 ovarian): 2.12 µM
- TGI (OVCAR-3 ovarian): 6.62 µM
- GI50 (MCF7 breast): 1.01 µM
- TGI (MCF7 breast): 4.36 µM
- GI50 (MOLT-4 leukemia): 2.04 µM
- TGI (MOLT-4 leukemia): > 100 µM
- GI50 (U251 CNS): 1.78 µM
- TGI (U251 CNS): 3.68 µM
- GI50 (CCRF-CEM leukemia): 1.69 µM
- TGI (CCRF-CEM leukemia): > 100 µM
- GI50 (A498 renal): 2.79 µM
- TGI (A498 renal): 7.23 µM
- GI50 (SK-MEL-5 melanoma): 1.84 µM
- TGI (SK-MEL-5 melanoma): 3.64 µM
- GI50 (COLO 205 colon): 2.37 µM
- TGI (COLO 205 colon): 4.46 µM
- GI50 (T-47D breast): 3.53 µM
- TGI (T-47D breast): > 100 µM
- GI50 (NCI/ADR-RES ovarian): 2.58 µM
- TGI (NCI/ADR-RES ovarian): > 100 µM
